We go through 17 molecules from patent US20140023611A1 (priority 2010, published 2014).

One series deals with T1, human NaP2b (SLC34A2) (Homo sapiens, UniProt O95436).
T1 construct: host or cells: HEK293
T1 sequence (O95436 1-690): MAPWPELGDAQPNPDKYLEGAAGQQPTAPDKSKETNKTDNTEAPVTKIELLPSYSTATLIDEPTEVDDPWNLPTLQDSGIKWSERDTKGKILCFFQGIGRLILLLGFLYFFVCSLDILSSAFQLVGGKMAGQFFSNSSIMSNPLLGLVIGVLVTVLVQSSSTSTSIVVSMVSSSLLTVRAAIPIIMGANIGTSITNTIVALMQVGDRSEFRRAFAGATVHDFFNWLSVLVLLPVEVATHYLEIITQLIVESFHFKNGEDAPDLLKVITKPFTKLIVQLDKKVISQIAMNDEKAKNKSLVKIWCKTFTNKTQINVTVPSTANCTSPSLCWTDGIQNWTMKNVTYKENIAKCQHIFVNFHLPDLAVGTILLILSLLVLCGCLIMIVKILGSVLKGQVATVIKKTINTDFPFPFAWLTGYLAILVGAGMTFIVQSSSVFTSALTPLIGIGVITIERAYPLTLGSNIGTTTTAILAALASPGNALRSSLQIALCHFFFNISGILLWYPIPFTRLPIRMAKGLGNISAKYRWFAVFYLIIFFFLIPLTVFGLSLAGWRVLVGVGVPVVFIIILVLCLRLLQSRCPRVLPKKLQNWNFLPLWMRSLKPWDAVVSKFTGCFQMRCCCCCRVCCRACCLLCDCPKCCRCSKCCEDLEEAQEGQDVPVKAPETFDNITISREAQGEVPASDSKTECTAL
The experiment in a line: Inhibition of NaP2b-mediated Pi (33P) uptake in transfected HEK293 cells, human NaP2b. It counts as cell-based. As to conditions: read-out: pIC50 range for human NaP2b (converted). In outline: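 HEK293 cells transiently transfected with human NaP2b (Thr inserted after residue 37, N39D), endogenous PiT transport pharmacologically silenced. Sodium or choline buffer, pH 7.4, with 100 uM KH2PO4, 33P orthophosphate and compound (0.1 nM–30 uM, twelve concentrations, duplicate). 3-30 min at room temperature, scintillation counting, pIC50 derived.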

Series [1] is described as follows: Stability of compounds in simulated intestinal fluid (SIF). It counts as in vitro ADME. As to conditions: simulated intestinal fluid (3 mg/mL pancreatin), incubation time 6 hr, relative to t=0. In outline: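 Compounds at […] were incubated 3 or 6 hr in USP simulated gastric fluid with 3 mg/mL pepsin or simulated intestinal fluid with 3 mg/mL pancreatin. Remaining compound was quantified by HPLC-UV or HPLC-MS peak area % and reported as percent of the t=0 level in the same medium.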

Series [2] is described as follows: Fecal recovery of orally administered compounds. The following applies: Structure (I) examples, Table 16; rat, oral gavage, feces collected until 48 hr after dosing. It counts as in vivo, Sprague-Dawley rats. In outline: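 After oral dosing, feces collected in metabolic cages up to 48 h, lyophilized and ground. Duplicate weighed portions per animal extracted with organic solvent under non-compound-optimized conditions, so recovery may be a minimal estimate.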

`O=C(O)c1cccc(SCc2cccc(C(=O)Nc3ccc(N4CCCCC4)cc3-c3cc(C(=O)NCc4cccc(C(F)(F)F)c4)ccn3)c2)c1` [Example 8.1, 3-(3-(4-(piperidin-1-yl)-2-(4-(3-(trifluoromethyl)benzylcarbamoyl)pyridin-2-yl)phenylcarbamoyl)benzylthio)benzoic acid]: the IC50 on human NaP2b (SLC34A2) was less than 1 µM. For the same molecule, the “% remaining, SIF” value in series [1] is listed as more than 80%. Moreover, the “% recovered in feces” value in series [2] was less than 20%.

In the case of `O=C(NCc1cccc(C(F)(F)F)c1)c1ccnc(-c2cc(N3CCCCC3)ccc2NC(=O)c2cccc(CSc3ccc(C(=O)O)c(Br)c3)c2)c1` [Example 8.21], the IC50 at human NaP2b (SLC34A2) is 1.26 µM. For the same molecule, in series [1], the “% remaining, SIF” value is on record as more than 80%. Further, the “% recovered in feces” value in series [2] was more than 80%.

In the case of `CN(CCN1CCOCC1)C(=O)c1cccc(C(=O)Nc2ccc(N3CCCCC3)cc2-c2cc(C(=O)NCc3cccc(C(F)(F)F)c3)ccn2)c1` [Example 80, N1-Methyl-N1-(2-morpholinoethyl)-N3-(4-(piperidin-1-yl)-2-(4-((3-(trifluoromethyl)benzyl)carbamoyl)pyridin-2-yl)phenyl)isophthalamide], the IC50 on human NaP2b (SLC34A2) was 1 to 7.94 µM. The “% recovered in feces” value in series [2] is on record as 20-80%.

In the case of `CN(CCOCCOCCOCCC(=O)O)C(=O)Cc1cccc(SCc2cccc(C(=O)Nc3ccc(N4CCCCC4)cc3-c3cc(C(=O)NCc4cccc(C(F)(F)F)c4)ccn3)c2)c1` [Example 138], the IC50 at human NaP2b (SLC34A2) is 1 to 7.94 µM. Besides, the “% remaining, SIF” value in series [1] is 40-60%. Further, the “% recovered in feces” value in series [2] is listed as less than 20%.

As to `O=C(O)CCOCCOCCOCCOCCSCc1cccc(C(=O)Nc2ccc(N3CCCCC3)cc2-c2cc(C(=O)N[C@H]3CCCc4ccccc43)ccn2)c1` [Example 142, 1-(3-{[4-(piperidin-1-yl)-2-(4-{[(1S)-1,2,3,4-tetrahydronaphthalen-1-yl]carbamoyl}pyridin-2-yl)phenyl]carbamoyl}phenyl)-5,8,11,14-tetraoxa-2-thiaheptadecan-17-oic acid], at human NaP2b (SLC34A2), the IC50 was 1 to 7.94 µM. In addition, the “% remaining, SIF” value in series [1] was more than 80%.

As to `CCN(CC)c1ccc(NC(=O)c2cccc(CSc3cccc(CC(=O)N(C)CCOCCOCCOCCC(=O)O)c3)c2)c(-c2cc(C(=O)NCc3cccc(C(F)(F)F)c3)ccn2)c1` [Example 144, 3-(2-(2-(2-(2-(3-(3-(4-(diethylamino)-2-(4-(3-(trifluoromethyl)benzylcarbamoyl)pyridin-2-yl)phenylcarbamoyl)benzylthio)phenyl)-N-methylacetamido)ethoxy)ethoxy)ethoxy)propanoic acid], the IC50 at human NaP2b (SLC34A2) was less than 1 µM. Besides, the “% remaining, SIF” value in series [1] is given as more than 80%.

As for `CCN(CC)c1ccc(NC(=O)c2cccc(CSCCOCCOCCOCCOCCOCCOCCOCCOCCC(=O)O)c2)c(-c2cc(C(=O)N[C@H]3CCCc4ccccc43)ccn2)c1` [Example 161, (S)-1-(3-(4-(diethylamino)-2-(4-(1,2,3,4-tetrahydronaphthalen-1-ylcarbamoyl)pyridin-2-yl)phenylcarbamoyl)phenyl)-5,8,11,14,17,20,23,26-octaoxa-2-thianonacosan-29-oic acid], the IC50 at human NaP2b (SLC34A2) was 1 to 7.94 µM. Besides, the “% remaining, SIF” value in series [1] is on record as more than 80%. In addition, in series [2], the “% recovered in feces” value was more than 80%.

Regarding `CCN(CC)c1ccc(NC(=O)c2cccc(CSCCOCCOCCOCCOCCC(=O)O)c2)c(-c2cc(C(=O)NCc3cccc(C(F)(F)F)c3)ccn2)c1` [Example 162, 1-(3-(4-(diethylamino)-2-(4-(3-(trifluoromethyl)benzylcarbamoyl)pyridin-2-yl)phenylcarbamoyl)phenyl)-5,8,11,14-tetraoxa-2-thiaheptadecan-17-oic acid], the IC50 on human NaP2b (SLC34A2) is less than 1 µM. Besides, the “% remaining, SIF” value in series [1] is reported as more than 80%. Further, the “% recovered in feces” value in series [2] is listed as 20-80%.

Regarding `CCN(CC)c1ccc(NC(=O)c2cccc(CSCCOCCOCCOCCOCCOCCOCCOCCOCCC(=O)O)c2)c(-c2cc(C(=O)NCc3cccc(C(F)(F)F)c3)ccn2)c1` [Example 166, 1-(3-(4-(diethylamino)-2-(4-(3-(trifluoromethyl)benzylcarbamoyl)pyridin-2-yl)phenylcarbamoyl)phenyl)-5,8,11,14,17,20,23,26-octaoxa-2-thianonacosan-29-oic acid], the IC50 at human NaP2b (SLC34A2) is 1 to 7.94 µM. In addition, in series [1], the “% remaining, SIF” value is more than 80%. Moreover, in series [2], the “% recovered in feces” value is more than 80%.

Consider `O=C(O)CCOCCOCCOCCNC(=O)c1cccc2c1ccn2Cc1cccc(C(=O)Nc2ccc(N3CCCCC3)cc2-c2cc(C(=O)N[C@H]3CCCc4ccccc43)ccn2)c1` [Example 181, (S)-1-oxo-1-(1-(3-(4-(piperidin-1-yl)-2-(4-(1,2,3,4-tetrahydronaphthalen-1-ylcarbamoyl)pyridin-2-yl)phenylcarbamoyl)benzyl)-1H-indol-4-yl)-5,8,11-trioxa-2-azatetradecan-14-oic acid], for which the IC50 at human NaP2b (SLC34A2) is less than 1 µM. The “% remaining, SIF” value in series [1] is more than 80%. The “% recovered in feces” value in series [2] was more than 80%.

For the molecule `CCN(CC)c1ccc(NC(=O)c2cccc(C(=O)N(C)CCOCCOCCOCCC(=O)O)c2)c(-c2cc(C(=O)NCc3cccc(C(F)(F)F)c3)ccn2)c1` [Example 188, 1-(3-((4-(diethylamino)-2-(4-((3-(trifluoromethyl)benzyl)carbamoyl)pyridin-2-yl)phenyl)carbamoyl)phenyl)-2-methyl-1-oxo-5,8,11-trioxa-2-azatetradecan-14-oic acid], on human NaP2b (SLC34A2), the IC50 is 1 to 7.94 µM.

On to `CCCN(CCC)c1ccc(NC(=O)c2cccc(COCCOCCOCCOCCOCCOCCOCCOCCOC)c2)c(-c2cc(C(=O)NCc3cccc(C(F)(F)F)c3)ccn2)c1` [Example 200, 2-(2-(3-(2,5,8,11,14,17,20,23,26-nonaoxaheptacosyl)benzamido)-5-(dipropylamino)phenyl)-N-(3-(trifluoromethyl)benzyl)isonicotinamide], for which the IC50 on human NaP2b (SLC34A2) was less than 1 µM. In series [1], the “% remaining, SIF” value is more than 80%. For the same molecule, the “% recovered in feces” value in series [2] was 20-80%.

Turning to `O=C(O)CCOCCOCCOCCOCCCc1cccc(C(=O)Nc2ccc(N3CCCCC3)cc2-c2cc(C(=O)N[C@H]3CCCc4ccccc43)ccn2)c1` [Example 252, 3-(2-(2-(2-(3-(3-((2-(4-(((S)-1,2,3,4-tetrahydronaphthalen-1-yl)carbamoyl)pyridin-2-yl)-4-(piperidin-1-yl)phenyl)carbamoyl)phenyl)propoxy)ethoxy)ethoxy)ethoxy)propanoic acid], the IC50 at human NaP2b (SLC34A2) was less than 1 µM. Further, the “% remaining, SIF” value in series [1] is more than 80%.

In the case of `CCN(CC)c1ccc(NC(=O)c2cccc(CCCOCCOCCOCCOCCNS(=O)(=O)c3ccc(C(=O)N(CCOC)CCOCCOCCOCCOCCOCCOCCOC)cc3)c2)c(-c2cc(C(=O)NCc3cccc(C(F)(F)F)c3)ccn2)c1` [Example 272, 2-(2-(3-(1-(4-(2,5,8,11,14,17,20-heptaoxadocosan-22-yl(2-methoxyethyl)carbamoyl)phenylsulfonamido)-3,6,9,12-tetraoxapentadecan-15-yl)benzamido)-5-(diethylamino)phenyl)-N-(3-(trifluoromethyl)benzyl)isonicotinamide], the IC50 at human NaP2b (SLC34A2) is 1 to 7.94 µM. Further, the “% recovered in feces” value in series [2] is more than 80%.

With `CCN(CC)c1ccc(NC(=O)c2cccc(CCCOCCOCCOCCOCCOCCOCCOCCOCCOCCC(=O)O)c2)c(-c2cc(C(=O)NCc3cccc(C(F)(F)F)c3)ccn2)c1` [Example 298, 31-(3-(4-(diethylamino)-2-(4-(3-(trifluoromethyl)benzylcarbamoyl)pyridin-2-yl)phenylcarbamoyl)phenyl)-4,7,10,13,16,19,22,25,28-nonaoxahentriacontan-1-oic acid], the IC50 at human NaP2b (SLC34A2) was 1 to 7.94 µM. Also, in series [2], the “% recovered in feces” value is reported as more than 80%.

Consider `CCN(CC)c1ccc(NC(=O)c2cccc(CCCOCCOCCOCCOCCOCCOCCC(=O)O)c2)c(-c2cc(C(=O)NCc3cccc(C(F)(F)F)c3)ccn2)c1` [Example 299, 22-(3-(4-(diethylamino)-2-(4-(3-(trifluoromethyl)benzylcarbamoyl)pyridin-2-yl)phenylcarbamoyl)phenyl)-4,7,10,13,16,19-hexaoxadocosan-1-oic acid], for which, on human NaP2b (SLC34A2), the IC50 is less than 1 µM. The “% recovered in feces” value in series [2] is listed as 20-80%.

Take `CCN(CC)c1ccc(NC(=O)c2cccc(CCCOCCOCCOCCOCCOCCC(=O)O)c2)c(-c2cc(C(=O)NCc3cccc(C(F)(F)F)c3)ccn2)c1` [Example 300, 19-(3-(4-(diethylamino)-2-(4-(3-(trifluoromethyl)benzylcarbamoyl)pyridin-2-yl)phenylcarbamoyl)phenyl)-4,7,10,13,16-pentaoxanonadecan-1-oic acid]: on human NaP2b (SLC34A2), the IC50 is less than 1 µM. The “% recovered in feces” value in series [2] is 20-80%.
